# From ChEMBL document CHEMBL1201862, “PubChem BioAssay data set” (2004)
# The source made the active and inactive calls.
# Key:
# [1] = molecular target: T1, Zinc finger protein mex-5 (Caenorhabditis elegans, UniProt Q9XUB2); assay: potency of MEX-5 RNA-binding blockers – biochemical, C. elegans, fluorescence polarization, dose response (AID 1960)
# T1 sequence (Q9XUB2 whole entry): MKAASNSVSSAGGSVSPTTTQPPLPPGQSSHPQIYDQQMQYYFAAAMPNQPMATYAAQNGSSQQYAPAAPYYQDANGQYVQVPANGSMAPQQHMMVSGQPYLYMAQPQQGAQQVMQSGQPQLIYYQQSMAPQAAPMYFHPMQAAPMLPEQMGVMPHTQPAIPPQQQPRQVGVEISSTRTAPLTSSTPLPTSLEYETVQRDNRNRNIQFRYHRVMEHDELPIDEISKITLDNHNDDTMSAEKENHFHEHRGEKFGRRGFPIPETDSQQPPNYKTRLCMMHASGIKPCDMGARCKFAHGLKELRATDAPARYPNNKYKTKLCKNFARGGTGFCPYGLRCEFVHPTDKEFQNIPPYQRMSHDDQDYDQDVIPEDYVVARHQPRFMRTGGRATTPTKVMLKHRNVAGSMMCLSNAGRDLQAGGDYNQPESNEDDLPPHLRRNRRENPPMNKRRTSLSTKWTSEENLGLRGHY
# [2] = molecular target: T2, RNA-binding protein pos-1 (Caenorhabditis elegans, UniProt G5EF15); assay: disruptors of C. elegans POS-1 RNA interaction – biochemical, fluorescence polarization, dose response (AID 1964);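 also: purified POS-1 fused to maltose binding protein made in E. coli; potency of compounds blocking POS-1 binding to fluorescent RNA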
# T2 sequence (G5EF15 whole entry): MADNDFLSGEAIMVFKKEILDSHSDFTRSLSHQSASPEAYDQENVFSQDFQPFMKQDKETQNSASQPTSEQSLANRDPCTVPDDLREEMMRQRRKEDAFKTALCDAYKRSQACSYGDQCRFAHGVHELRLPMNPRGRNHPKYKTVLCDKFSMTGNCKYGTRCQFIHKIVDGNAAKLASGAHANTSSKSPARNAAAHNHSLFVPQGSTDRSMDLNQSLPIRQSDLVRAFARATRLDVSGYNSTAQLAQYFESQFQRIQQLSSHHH
# [3] = molecular target: Luciferin 4-monooxygenase (Photinus pyralis, UniProt P08659); assay: inhibition of purified Photinus pyralis luciferase – biochemical, luminescence, dose response (AID 1891)
# Chain of Luciferin 4-monooxygenase (P08659 whole entry): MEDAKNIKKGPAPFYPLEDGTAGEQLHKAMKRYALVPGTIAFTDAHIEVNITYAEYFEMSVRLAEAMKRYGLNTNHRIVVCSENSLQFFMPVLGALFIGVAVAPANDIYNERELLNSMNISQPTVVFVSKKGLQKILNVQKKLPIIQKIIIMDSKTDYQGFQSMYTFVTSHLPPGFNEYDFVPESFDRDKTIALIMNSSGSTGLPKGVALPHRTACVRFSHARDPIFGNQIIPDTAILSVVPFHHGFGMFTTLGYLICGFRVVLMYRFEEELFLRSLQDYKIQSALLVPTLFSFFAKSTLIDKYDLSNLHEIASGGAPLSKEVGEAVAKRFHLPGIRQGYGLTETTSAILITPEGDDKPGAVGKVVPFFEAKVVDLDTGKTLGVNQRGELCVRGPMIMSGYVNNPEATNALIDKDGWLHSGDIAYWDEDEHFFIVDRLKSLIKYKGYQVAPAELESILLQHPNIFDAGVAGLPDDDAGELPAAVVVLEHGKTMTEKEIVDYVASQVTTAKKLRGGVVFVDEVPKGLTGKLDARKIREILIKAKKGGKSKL
# [4] = Luminescence Cell-Based Dose Confirmation HTS to Identify Inhibitors of Platelet Dense Granule Release. [Related pubchem assays: 1663 (Primary HTS), 1678 (Summary of Project)]; type: functional
# Protein skinhead-1 = molecular target: T3, Protein skinhead-1 (Caenorhabditis elegans, UniProt P34707); type: functional
# T3 sequence (P34707 whole entry): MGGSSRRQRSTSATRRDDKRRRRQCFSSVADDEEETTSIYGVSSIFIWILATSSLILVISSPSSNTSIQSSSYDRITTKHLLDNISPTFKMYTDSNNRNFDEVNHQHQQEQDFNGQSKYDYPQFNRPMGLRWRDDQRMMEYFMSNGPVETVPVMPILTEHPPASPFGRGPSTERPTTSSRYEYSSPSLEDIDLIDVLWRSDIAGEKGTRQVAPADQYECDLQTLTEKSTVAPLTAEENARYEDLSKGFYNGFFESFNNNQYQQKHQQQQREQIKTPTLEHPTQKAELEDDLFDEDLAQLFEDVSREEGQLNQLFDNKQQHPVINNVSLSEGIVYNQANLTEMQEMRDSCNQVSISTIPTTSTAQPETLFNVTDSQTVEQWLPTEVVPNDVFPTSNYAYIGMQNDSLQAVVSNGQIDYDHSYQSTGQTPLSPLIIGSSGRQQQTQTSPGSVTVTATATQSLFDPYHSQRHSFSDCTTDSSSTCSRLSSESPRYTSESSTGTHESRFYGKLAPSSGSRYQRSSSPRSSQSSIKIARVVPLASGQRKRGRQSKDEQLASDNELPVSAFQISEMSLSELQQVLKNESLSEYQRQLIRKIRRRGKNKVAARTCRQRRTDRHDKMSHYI
# Nonstructural protein 1 = Nonstructural protein 1 (Influenza A virus, UniProt Q194T2); type: functional, Influenza A virus (A/California/07/2009(H1N1))
# Chain of Nonstructural protein 1 (Q194T2 whole entry): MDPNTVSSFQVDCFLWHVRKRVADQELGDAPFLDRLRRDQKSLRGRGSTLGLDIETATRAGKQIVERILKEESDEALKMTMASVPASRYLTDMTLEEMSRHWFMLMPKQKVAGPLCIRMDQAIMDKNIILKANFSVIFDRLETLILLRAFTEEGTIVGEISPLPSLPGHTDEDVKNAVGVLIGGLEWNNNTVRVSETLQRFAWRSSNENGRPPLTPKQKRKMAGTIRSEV
# Streptococcus = assay: GAS UMAA2166 growth inhibition – luminescence, BacTiterGlo, counter-screen for streptokinase expression inhibitor project, dose response (AID 1915); type: functional, organism-based;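 also: potency for reduction of bacterial viability or growth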
# [5] = tested on: Streptococcus sp. 'group A'; assay: Streptococcus pyogenes SK(-)GAS viability under kanamycin – luminescence, BacTiterGlo, confirmation, counter-screen for streptokinase expression inhibitor project, dose response (AID 1900); type: functional, organism-based
# Streptokinase A = molecular target: T4, Streptokinase A (Streptococcus pyogenes serotype M1, UniProt P10520); assay: viability-normalized secreted streptokinase activity reduction – plasminogen activation absorbance, OD405, dose response (AID 1914); type: functional, Streptococcus pyogenes M1 GAS;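 also: secreted streptokinase activity via plasminogen activation per viability signal from cell pellet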
# T4 sequence (P10520 whole entry): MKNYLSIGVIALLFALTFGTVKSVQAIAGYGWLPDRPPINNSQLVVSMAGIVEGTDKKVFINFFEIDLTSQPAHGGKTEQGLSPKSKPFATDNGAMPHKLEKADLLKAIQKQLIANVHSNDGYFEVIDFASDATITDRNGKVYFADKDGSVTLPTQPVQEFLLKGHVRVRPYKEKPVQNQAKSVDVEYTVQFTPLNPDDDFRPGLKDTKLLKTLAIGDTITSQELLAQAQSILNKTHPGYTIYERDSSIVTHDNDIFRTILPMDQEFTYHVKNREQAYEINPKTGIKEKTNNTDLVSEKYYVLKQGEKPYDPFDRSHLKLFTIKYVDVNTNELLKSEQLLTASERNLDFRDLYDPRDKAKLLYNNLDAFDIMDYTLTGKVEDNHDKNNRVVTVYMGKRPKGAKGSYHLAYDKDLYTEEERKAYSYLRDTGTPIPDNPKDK
# [6] = molecular target: T5, Ubiquitin-conjugating enzyme E2 N (Homo sapiens, UniProt P61088); type: functional;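 also: Dose-response confirmation in a TR-FRET assay detecting UBC13-driven polyubiquitin chain formation, inhibition measured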
# T5 sequence (P61088 whole entry): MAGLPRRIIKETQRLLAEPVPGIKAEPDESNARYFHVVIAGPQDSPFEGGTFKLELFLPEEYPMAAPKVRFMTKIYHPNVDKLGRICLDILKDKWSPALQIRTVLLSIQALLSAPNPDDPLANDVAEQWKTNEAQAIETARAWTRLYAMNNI
# [7] = viability of HCT116 lacking mutant beta-catenin – cell-based, human colon tumor, dose response (AID 1045); type: functional;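 also: HCT116 colon tumor cells with beta catenin knocked out; cells exposed to compound for 60 hours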
# [8] = viability of PTEN-deleted HCT116 cells – cell-based, HCT116 PTEN knockout, dose response (AID 1047); type: functional;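 also: HCT116 colon tumor cells with PTEN knocked out; cells exposed to compound for 60 hours before readout; potency for loss of cell viability measured by luminescence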
# [9] = P. falciparum Dd2 growth inhibitors, dose response, SYBR Green, cherry-picked samples (AID 1159567); type: functional, cell-based
# [10] = microbe, parasite or virus in culture; type: functional; settings: Mycobacterium tuberculosis
# H9c2 = assay: cells; type: functional, cell-based; settings: Rattus norvegicus, H9c2, Myocardium;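 also: confirmatory concentration-response retest of ultra-high-throughput screening hits for modulation of myocardial damage; cell death induced by hydrogen peroxide oxidative stress; compound pretreatment for 60 min then peroxide exposure for 2 h; potency is for protecting the cells against peroxide damage rather than for killing them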
# Vero = assay: cells; type: functional; settings: Chlorocebus sabaeus
# [11] = molecular target: T6, Rac GTPase-activating protein 1 (Homo sapiens, UniProt Q9H0H5); assay: blockers of MgcRacGAP-driven Rac1 GTP hydrolysis – biochemical, ADP Hunter fluorescence, primary and confirmatory, confirmation (AID 624330); type: functional
# T6 sequence (Q9H0H5 whole entry): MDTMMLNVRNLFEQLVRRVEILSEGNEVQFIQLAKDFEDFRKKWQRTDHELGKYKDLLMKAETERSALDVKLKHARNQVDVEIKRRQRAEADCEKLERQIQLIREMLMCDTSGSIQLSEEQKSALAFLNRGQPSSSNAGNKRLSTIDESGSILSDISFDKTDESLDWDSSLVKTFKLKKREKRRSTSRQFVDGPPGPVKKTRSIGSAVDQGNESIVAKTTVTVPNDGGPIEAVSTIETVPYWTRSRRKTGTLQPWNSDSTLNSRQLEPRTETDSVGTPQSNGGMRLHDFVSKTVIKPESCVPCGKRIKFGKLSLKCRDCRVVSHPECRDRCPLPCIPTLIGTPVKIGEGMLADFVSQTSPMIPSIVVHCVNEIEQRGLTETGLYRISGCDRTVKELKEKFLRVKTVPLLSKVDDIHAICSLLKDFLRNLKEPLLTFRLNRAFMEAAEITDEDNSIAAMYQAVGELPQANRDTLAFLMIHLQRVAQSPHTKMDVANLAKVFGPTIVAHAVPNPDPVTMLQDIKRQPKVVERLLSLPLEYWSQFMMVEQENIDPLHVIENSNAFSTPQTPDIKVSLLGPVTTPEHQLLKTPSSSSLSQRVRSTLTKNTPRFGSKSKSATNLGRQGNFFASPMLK
# Large T antigen = Large T antigen (Simian virus 40, UniProt P03070); type: functional, Betapolyomavirus macacae;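 also: Confirmatory-stage PubChem screen for compounds that inhibit SV40 T antigen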
# Chain of Large T antigen (P03070 whole entry): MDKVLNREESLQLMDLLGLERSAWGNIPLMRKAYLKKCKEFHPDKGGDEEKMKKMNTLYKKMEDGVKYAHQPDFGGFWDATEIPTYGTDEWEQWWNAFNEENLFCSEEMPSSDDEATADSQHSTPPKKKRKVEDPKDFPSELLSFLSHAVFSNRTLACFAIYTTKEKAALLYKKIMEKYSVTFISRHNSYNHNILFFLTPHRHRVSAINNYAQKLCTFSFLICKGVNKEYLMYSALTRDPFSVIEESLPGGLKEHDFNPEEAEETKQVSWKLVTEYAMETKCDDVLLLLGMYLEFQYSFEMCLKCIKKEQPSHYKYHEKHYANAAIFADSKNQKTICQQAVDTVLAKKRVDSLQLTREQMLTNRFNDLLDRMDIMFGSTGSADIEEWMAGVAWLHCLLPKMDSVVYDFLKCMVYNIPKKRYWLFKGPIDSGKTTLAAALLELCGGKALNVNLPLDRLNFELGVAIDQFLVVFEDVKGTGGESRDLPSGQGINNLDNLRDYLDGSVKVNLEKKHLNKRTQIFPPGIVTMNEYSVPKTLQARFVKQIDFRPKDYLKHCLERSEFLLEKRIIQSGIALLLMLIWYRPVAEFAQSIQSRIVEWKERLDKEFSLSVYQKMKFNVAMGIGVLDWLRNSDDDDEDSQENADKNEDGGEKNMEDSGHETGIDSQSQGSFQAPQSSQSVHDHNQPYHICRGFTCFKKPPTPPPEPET
# [12] = viability of uninfected HEp-2 cells – cell-based, HTS, cytotoxicity control for RSV inhibitor project, dose response (AID 2410); type: functional; settings: human respiratory syncytial virus
structure (smiles),measurement,setting,value
CCCn1c(O)c(C#N)c(C)c(CN2CCCCC2)c1=O,EC50,[1],> 300 µM (not active)
same,EC50,[2],> 300 µM (inconclusive)
Cc1ccc(NS(=O)(=O)c2cccc(C(=O)N3CCCCCC3)c2)cc1,EC50,[3],> 112 µM (not active)
same,EC50,[4],> 112 µM (not active)
Brc1cccc(-c2nc(-c3ccncc3)no2)c1,IC50,Protein skinhead-1,16.6 µM (active)
COC(=O)c1cccc(NC(=O)Nc2ccc(Cl)cc2Cl)c1,EC50,[3],> 112 µM (not active)
same,EC50,[4],> 112 µM (not active)
CSc1ccc(/C=N/NC(=O)c2cccc(O)c2)cc1,EC50,[3],0.619 µM (active)
same,EC50,[4],6.7 µM (active)
Cc1[nH]c2ccccc2c1C(c1ccccn1)c1c(C)[nH]c2ccccc12,IC50,Nonstructural protein 1,> 100 µM (active)
same,EC50,Streptococcus,12.1 µM (active)
same,EC50,[5],5.36 µM (active)
same,EC50,Streptokinase A,> 150 µM (not active)
CCN(CC)CCC(c1ccc(N(C)C)cc1)c1c(OC)cc(OC)c2c(-c3ccccc3)cc(=O)oc12 (centres undefined),IC50,Nonstructural protein 1,13.6 µM (active)
same,IC50,[6],> 20 µM (inactive)
CC1C/C(=N/Nc2ccc([N+](=O)[O-])cc2[N+](=O)[O-])CC(C)(C)C1 (centres undefined),IC50,Nonstructural protein 1,46 µM (active)
Cn1ncc(Cl)c1C(=O)N/N=C/c1cccc(OC2CSC2)c1,EC50,[1],> 300 µM (not active)
same,EC50,[2],> 300 µM (not active)
COc1ccc(C(=O)C(CCC(CNC(C)(C)C)C(=O)c2ccc(OC)cc2)CNC(C)(C)C)cc1 (centres undefined),EC50,[3],> 112 µM (not active)
same,EC50,[4],4.24 µM (active)
same,EC50,[7],2.48 µM (active)
same,EC50,[8],3.04 µM (active)
CCOc1ccc(N2CC(C(=O)NCCc3ccc(OC)c(OC)c3)CC2=O)cc1 (centres undefined),EC50,[3],> 112 µM (not active)
same,EC50,[4],36.1 µM (active)
COc1ccc(CNc2ccc(-c3ccc(OC)cc3)nn2)cc1,EC50,[3],> 112 µM (not active)
same,EC50,[4],> 112 µM (not active)
Oc1ccc2ccccc2c1N=Nc1ccccc1F,IC50,Nonstructural protein 1,20.4 µM (active)
COc1ccc(CN2C[C@H](C)[C@@H](OC)CN(C)C(=O)c3cc(NC(=O)c4nc5ccccc5s4)ccc3OC[C@@H]2C)cc1,AC50,[9],4.9 µM (active)
COC(=O)c1ccc(CN2CC(=O)N3[C@H](CO)[C@@H](c4ccc(-c5ccccc5F)cc4)[C@H]3C2)cc1,AC50,[9],30 µM (active)
CC1(C)CC(=O)C2=C(C1)OC(/N=C/N1CCOCC1)=C(C#N)C2c1ccccc1 (centres undefined),EC50,[1],> 300 µM (not active)
same,EC50,[2],> 300 µM (not active)
Cc1ccc(NC(=O)C(=O)c2ccc(C)cc2)cc1,IC50,Protein skinhead-1,98.5 µM (inactive)
CN(C)c1ccc(N=Nc2ccccc2C(=O)OCC(=O)NCC2CCCCC2)cc1,CC50,[10],> 40 µM (active)
N#CC1=C(N)OC2=C(C(=O)CCC2)C1c1cc2c(cc1Cl)OCO2 (centres undefined),EC50,[1],> 300 µM (not active)
same,EC50,[2],> 300 µM (not active)
Cc1cc(-n2c(C)cc(C(=O)COc3ccc4ccc(=O)oc4c3)c2C)no1,CC50,[10],> 40 µM (active)
same,IC50,H9c2,24.7 µM (active)
Cc1cc2ccccc2n1CCNC(=O)C1CCCC1,IC50,Protein skinhead-1,> 100 µM (inactive)
COCOCCn1cc(CN2CCS(=O)(=O)N(Cc3ccc(-c4cccc(N(C)C)c4)cc3)C(C(C)C)C2=O)nn1 (centres undefined),IC50,Protein skinhead-1,> 100 µM (inactive)
CC(=O)Nc1cccc(N2C(=O)CC(Cc3ccccc3)C2=O)c1 (centres undefined),EC50,[3],> 112 µM (not active)
same,EC50,[4],> 112 µM (not active)
N#Cc1cncc(C#Cc2ccccc2)c1,IC50,Protein skinhead-1,16.9 µM (active)
COc1cccc(NC(=O)C2CCCN(c3ncnc4c3nc3n4CCCCC3)C2)c1 (centres undefined),IC50,Protein skinhead-1,> 100 µM (inactive)
O=C(CCC(=O)N1CCOc2ccc(Cl)cc21)NCCCN1CCC(Cc2ccccc2)CC1,IC50,[6],> 20 µM (inactive)
same,CC50,Vero,18.9 µM (active)
COc1ccc2c3c(n(C)c2c1)[C@H](CO)N(Cc1ccncc1)CC31CCN(C(=O)Cc2ccncc2)CC1,AC50,[9],7.67 µM (active)
COc1cc(OC)c(NC(=O)c2cc(S(=O)(=O)N3CCOCC3)cn2C)cc1Cl,EC50,[3],> 112 µM (not active)
same,EC50,[4],> 112 µM (not active)
Cc1ccn2c(-c3csc(NCc4ccccc4)n3)c(C)nc2c1,CC50,[10],> 40 µM (active)
Oc1ccc(/C=N/NC(=S)NCCN2CCOCC2)c(O)c1,IC50,Nonstructural protein 1,6.59 µM (active)
same,IC50,[11],20.6 µM (active)
same,IC50,Large T antigen,7.26 µM (active)
O=C1CSC(N/N=C/c2cccs2)=N1,EC50,[1],> 300 µM (not active)
same,EC50,[2],> 300 µM (not active)
CCOC(=O)c1ccc(/N=C2\C(=S)N(c3ccc(C(=O)OCC)cc3)C(=N)N2/N=C/c2ccccc2)cc1,CC50,[10],> 40 µM (active)
CCCn1c2ccccc2c2nc3ccccc3nc21,IC50,[6],> 20 µM (inactive)
same,CC50,[12],> 50 µM (active)
O=[N+]([O-])c1cc(-c2ccc(/C=N/n3cnnc3)o2)ccc1Cl,EC50,[1],32.5 µM (active)
same,EC50,[2],30.1 µM (active)
